Results reported in patent publication US11149055B2, “Crystal form of lanosterol prodrug compound and application thereof” (GUANGZHOU OCUSUN OPHTHALMIC BIOTECHNOLOGY CO., LTD., priority 2018, dated 2021).
Read-outs that look alike come from different tables or passages of the source.

How the values were obtained:
[1] = Pre-stability experiment (influencing factors: high temperature, high humidity, light); type: physicochemical; conditions: 60° C. open; relative humidity 92.5% open; light 1 ICH; up to 10 days
Description: The crystal form A of the compound of formula (I) was placed under the following 3 conditions and tested for appearance, XRPD, content and related substances at different time points.
10 mg of the crystal form A of the compound of formula (I) was accurately weighted and placed in a sample bottle, and then spread to form a thin layer. The samples were placed under 60° C., 92.5% RH, the mouth of the bottle was directly wrapped with aluminum foil which was punctured to get some small holes to ensure that the sample can fully contact the ambient air. The samples were placed respectively in a dry box and a glass jar containing saturated potassium nitrate solution. The illuminated sample (open, not covered with aluminum foil) and the illuminated control sample (open, the sample bottle was entirely covered with aluminum foil) were placed in the light box. 2 parts of the sample were weighted at each time point as the formal test sample. In addition, about 5 mg of the crystal form A of the compound of formula (I) was weighted for XRPD testing; the sample bottle was wrapped with aluminum foil which was punctured to get some small holes; the samples were also placed in the corresponding drying box and the glass jar containing saturated potassium nitrate solution. […]

[2] = Hygroscopicity study by Dynamic Vapor Sorption (DVS); type: physicochemical; conditions: 25° C. and 80% RH
Description: Dynamic Vapor Sorption (DVS)
Detection method: samples (10 mg to 20 mg) were placed in a DVS sample tray for testing.
Equilibrium: dm/dt: 0.01%/min: (Shortest: 10 min, longest: 180 min)
RH (%) gradient for testing: 10%
RH (%) gradient range for testing: 0% to 90% to 0%
The hygroscopicity was evaluated using the following scales:
SMS DVS Advantage Dynamic Vapor Sorption System
10 to 15 mg of the crystal form A of the compound of formula (I) was placed in the DVS sample tray for testing.

[3] = tested on: ultraviolet-induced New Zealand rabbit cataract model; assay: Slit lamp observation, ultraviolet-induced cataract model; type: in vivo; conditions: ultraviolet model (313 nm UV 24 hours); eye drops right eye 3 times every day for 42 days
Description: (§1) Adult New Zealand rabbits 2.0-2.5 kg, normal grade, male and female, a total of 25.
(§2) The experimental rabbits were randomly divided into 5 groups with 5 rabbits per group.
(§3) 2) Model control group (MC): 313 nm UV irradiation for 24 hours to make model, then drug-free blank eye drops were dripped into the right eye 3 times every day for 42 days.
(§4) 3) Positive control group (PC): 313 nm UV irradiation for 24 hours to make model, then Kary Uni eye drops (Santen Pharmaceutical Co., Ltd in Japan) were dripped into the right eye 3 times every day for 42 days.
(§5) 4) Lanosterol eye drops treatment group (LT): 313 nm UV irradiation for 24 hours to make model, then lanosterol eye drops were dripped into the right eye 3 times every day for 42 days.
(§6) 5) Lanosterol prodrug 026 eye drops treatment group (026): 313 nm UV irradiation for 24 hours to make model, then the lanosterol prodrug 026 eye drops were dripped into the right eye 3 times every day for 42 days.

[4] = Penetration of ocular drugs in the body and conversion to lanosterol (aqueous humor concentration after eye drops); type: in vivo, New Zealand white rabbit; conditions: for AUC: New Zealand white, rabbit; for Penetration into the aqueous humor: from the cornea or through other routes
Description: In this study, New Zealand white rabbits (body weight was more than 2 kg, aged more than 12 weeks) were used as experimental animals. Each compound was studied in two New Zealand white rabbits. Each rabbit was instilled with 50 μL of eye drops in each eye, three eyes were used to collect aqueous humor samples and one eye was used as a backup. The formula of the eye drops was 1.2% hydroxypropyl methylcellulose (E5 size), 20.5% poloxamer (P407 size), 1.6% poloxamer (P188 size), the concentration of the compound was 5 mM, and the eye drops were homogeneous suspensions. After the eye drops were dripped into the rabbit's eyes, the anterior aqueous humor was collected 0.5, 2, 4 and 6 hours after administration. The volume of each sample was not more than 50 μL. Each animal was given mild anesthesia before collecting samples. Three samples were collected at each time point. The collected aqueous humor samples were stored in dry ice immediately after collection or stored in a refrigerator at −80±10° C. After the sample collection, the animals were euthanized. The concentration of the compound in each sample was determined using a triple quadrupole mass spectrometer (API 4000). Tables 3 and 4 show the DMPK determination conditions in vivo; Tables 5 and 6 show the drug concentration in the aqueous humor after compound lanosterol (parent drug) and the prodrug compound were dripped into eyes ([…]).

[5] = tested on: sodium selenite-induced neonatal New Zealand rabbit cataract model; assay: Lens transparency test in vitro, sodium selenite-induced cataract model; type: in vivo; conditions: after 42 days of administration, left eye as self-control
Description: (§7) P7 days old neonatal New Zealand rabbits, normal grade, and 5 young rabbits per litter were breast-fed with a mother rabbit.
(§8) The experimental young rabbits were randomly divided into 5 groups with 5 rabbits per group.
(§9) 2) Model control group (MC): in the P10 day, the young rabbits were injected subcutaneously with sodium selenite solution (in physiological saline) at a dose of 20 μmol/kg body weight, and after the P15 day, drug-free blank eyes drops were dripped into the right eye 3 times every day for 42 days.
(§10) 3) Positive control group (PC): in the P10 day, the young rabbits were injected subcutaneously with sodium selenite solution (in physiological saline) at a dose of 20 μmol/kg body weight, and after the P15 day, Kary Uni eye drops (Santen Pharmaceutical Co., Ltd in Japan) were dripped into the right eye 3 times every day for 42 days.
(§11) 4) Lanosterol eye drops treatment group (LT): in the P10 day, the young rabbits were injected subcutaneously with sodium selenite solution (in physiological saline) at a dose of 20 μmol/kg body weight, and after the P15 day, lanosterol eye drops were dripped into the right eye 3 times every day for 42 days. […]

[6] = tested on: lens glutathione peroxidase (GSH-PX) activity; assay: Lens glutathione peroxidase (GSH-PX) activity assay, sodium selenite-induced cataract model; type: in vivo, New Zealand rabbit; conditions: after 42 days of administration
Description: as §7, §8, §9, §10
4) Lanosterol eye drops treatment group (LT): in the P10 day, the young rabbits were injected subcutaneously with sodium selenite solution (in physiological saline) at a dose of 20 μmol/kg body weight, and after the P15 day, lanosterol eye drops were dripped into the right eye 3 times every day for 42 days.
5) Lanosterol prodrug 026 eye drops treatment group (026, the compound of formula (I)): in the P10 day, the young rabbits were injected subcutaneously with sodium selenite solution (in physiological saline) at a dose of 20 μmol/kg body weight, and after the P15 day, lanosterol prodrug 026 eye drops were dripped into the right eye 3 times every day for 42 days.
3) Glutathione peroxidase (GSH-PX) activity assay: GSH-PX activity of the isolated rabbit lens in each group was determined by the method provided in the specification of GSH-PX activity detection kit (Nanjing Jiancheng Bioengineering Institute). The experimental data was analyzed by One-Way ANOVA with SPSS statistical software. The LSD method was used to compare the groups, and the statistical difference level was p<0.05.

[7] = tested on: lens glutathione peroxidase (GSH-PX) activity; assay: Lens glutathione peroxidase (GSH-PX) activity assay, ultraviolet-induced cataract model; type: in vivo, New Zealand rabbit; conditions: after 42 days of administration
Description: as §1, §2, §3, §4, §5, §6
3) Glutathione peroxidase (GSH-PX) activity assay: GSH-PX activity of the isolated rabbit lens in each group was determined by the method provided in the specification of GSH-PX activity detection kit (Nanjing Jiancheng Bioengineering Institute). The experimental data were analyzed by One-Way ANOVA with SPSS statistical software. The LSD method was used to compare the groups, and the statistical difference level was p<0.05.

[8] = tested on: sodium selenite-induced neonatal New Zealand rabbit cataract model; assay: Slit lamp observation, sodium selenite-induced cataract model; type: in vivo; conditions: eye drops right eye 3 times every day for 42 days
Description: as §7, §8, §9, §10, §11

[9] = tested on: ultraviolet-induced New Zealand rabbit cataract model; assay: Lens transparency test in vitro, ultraviolet-induced cataract model; type: in vivo; conditions: after 42 days of administration, left eye as self-control
Description: as §1, §2, §3, §4, §5, §6
2) Lens transparency test in vitro: on the last day, the animal's eyeball was dissected, the lens containing the capsule was completely separated, and the lens was placed on a grid paper (2.12×2.12 mm). The photographs show the sharpness of the grid photographed through the lens.

Compound	Crystal form stability (appearance, XRPD, content, related substances) [1]	Hygroscopic weight gain (ΔW) [2]	Hygroscopicity scale [2]	Cataract symptoms by slit lamp observation, after vs before administration [3]	AUC ([4]; aqueous humor, topical, 250 nmol per eye, 250 nmol lanosterol dripped into each eye, read-out: AUC (exposure amount) of lanosterol in the aqueous humor)	Penetration into the aqueous humor ([4]; eye drops)	Lens transparency in vitro of administered right eye [5]	Effect on lens GSH-PX activity compared with the other treatments [6]	Lens GSH-PX activity vs MC group [6]	Effect on lens GSH-PX activity compared with the other treatments [7]	Lens GSH-PX activity vs MC group [7]	Cataract symptoms by slit lamp observation, after vs before administration [8]	Lens transparency in vitro of administered right eye [9]	Average concentration of the compound of formula (I) in the aqueous humor ([4]; 250 nmol the compound of formula (I) dripped into each eye, analyte prodrug, 0.5 hour)	Average concentration of the compound of formula (I) in the aqueous humor ([4]; 250 nmol the compound of formula (I) dripped into each eye, analyte prodrug, 2 hour)	Average concentration of the compound of formula (I) in the aqueous humor ([4]; 250 nmol the compound of formula (I) dripped into each eye, analyte prodrug, 4 hour)	Average concentration of the compound of formula (I) in the aqueous humor ([4]; 250 nmol the compound of formula (I) dripped into each eye, analyte prodrug, 6 hour)	AUC ([4]; in vivo, 250 nmol the compound of formula (I) dripped into each eye, analyte prodrug, read-out: AUC (exposure amount) of the compound of formula (I) in the aqueous humor)	Conversion into the parent drug lanosterol ([4]; during the infiltration process)	Lanosterol concentration and exposure in the aqueous humor compared with lanosterol eye drops ([4]; eye drops)
CC(C)=CCC[C@@H](C)[C@H]1CC[C@@]2(C)C3=C(CC[C@]12C)[C@@]1(C)CC[C@H](OC(=O)c2ccccc2O)C(C)(C)C1CC3 (some centres unmarked)	the crystal form has not changed after the experiment, and its stability is good	0.747%	slightly hygroscopic	–	–	–	–	–	–	–	–	–	–	–	–	–	–	–	–	–
CC(C)=CCC[C@@H](C)[C@H]1CC[C@@]2(C)C3=C(CC[C@]12C)[C@@]1(C)CC[C@H](O)C(C)(C)[C@@H]1CC3 [Lanosterol]	–	–	–	no evident change	1.78 µM·h	capable of penetrating into the aqueous humor	no significant change in lens transparency	significantly lower than that of 026 and Kary Uni	no statistical difference compared to the MC group	significantly lower than that of 026 and Kary Uni	no statistical difference compared to the MC group	no evident change	no significant change in lens transparency	–	–	–	–	–	–	–
CC(C)=CCC[C@@H](C)[C@H]1CC[C@@]2(C)C3=C(CC[C@]12C)[C@@]1(C)CC[C@H](OC(=O)c2ccccc2O)C(C)(C)C1CC3 (some centres unmarked) [the compound of formula (I)]	–	–	–	cataract symptoms were significantly reduced	–	capable of penetrating into the aqueous humor	significantly higher than that of the left eye	better than that of Kary Uni	capable of increasing the GSH-PX activity of the lens	better than that of Kary Uni	capable of increasing the GSH-PX activity of the lens	cataract symptoms were significantly reduced	significantly higher than that of the left eye	41.0 nM	33.3 nM	25.5 nM	BQL	0.124 µM·h	capable of converting into the parent drug lanosterol	higher concentration and exposure of lanosterol in the aqueous humor
